Source: US20090137565A1, “Method for treatment of movement disorders” (The Trustees of Columbia University in the City of New York, priority 2004, published 2009)
Entries after “also recorded” stand apart in the source; their conditions may differ.

Key:
[1] = test system: ethanol-responsive myoclonus (PHM, MD); assay: Five-patient open-label trial of sodium oxybate, blinded UMRS (patients #1-3); assay type: in vivo, human; settings: for UMRS section 2 (myoclonus at rest) score: range 0-128; for UMRS section 1 (patient questionnaire) score: range 0-44; for UMRS section 6 (global disability score): range 0-4; for UMRS section 3 (stimulus sensitivity) score: range 0-17; for UMRS section 5 (functional tests) score: range 0-20, 0 gm score 20; for UMRS section 4 (myoclonus with action) score: range 0-160; for UMRS section 5 (functional tests, modified) score: range 0-28
Source text: Five patients were enrolled in a trial from the Movement Disorders Division of Columbia University Medical Center during the fall of 2004. All patients were afflicted with hyperkinetic movement disorders that responded to ethanol (defined as a noticeable change to the patient), and all were refractory to treatment with conventional medications or could not tolerate them. The Medical Center's Institutional Review Board approved the trial, and written and verbal informed consent were obtained from all patients prior to enrollment.
The dose and timing of all other drugs were kept constant throughout the trial, and patients were not withdrawn from other medications. Patients #1-3 were examined and videotaped using the Unified Myoclonus Rating Scale (UMRS), and patients #4 and 5 were examined and videotaped using the Washington Heights Inwood Tremor Rating Scale (WHIGET) (see Appendix I). Frucht S. J., et al. Adv Neurol 89:361-76 (2002); Louis, E. D., et al. Mov Disord 16:89-93 (2001).
(§1) Side effects were defined as either minor or serious (leading to hospitalization) using good clinical practice standards (www.who.int/medicines/library/par/ggcp/GCPGuidePharmatrials), and patients were asked to report side effects at each visit. After initial examination and videotaping, patients were given 1 gm of sodium oxybate by mouth (2 ml of the standard 0.5 gm/ml solution dissolved in 60 ml of water). One hour later, the senior author repeated the examination and videotaping. […] After two weeks taking 2 gm twice daily, the procedure was repeated after a 3 gm office dose, and finally two weeks after receiving 3 gm twice daily, the procedure was repeated after a 4 gm office dose. The maximum dose allowed in the trial was 4 gm twice daily. Patients and the senior author determined at each visit whether or not to proceed to the next dose level, based principally on their ability to tolerate the most recent dose regimen. After deciding on a maximum tolerated dose, patients received a dose in the office 0.5 gm less and the examination was videotaped.
The entire videotape segments and patient-writing samples from each visit were copied, and were blinded to trial order and identifying features, and were randomly ordered for review using a random number table. A movement disorder expert blinded to trial design and dose schedule, scored each videotape. Sub-scores for each visit were calculated as described previously. Frucht S. J., et al. Adv Neurol 89:361-76 (2002). We modified section 5 of the UMRS in which functional performance (pouring water, using a soup spoon) is performed only with the dominant arm (section V). […] This increased the maximum score of section 5 of the UMRS from 20 to 28.

[2] = Five-patient trial: tolerability of Xyrem; assay type: in vivo, human
Experimental: as §1

[3] = test system: NREM and REM sleep; settings: about 30-60 mg/kg doses, healthy human volunteers; cited from earlier work
[4] = patient 1, listed as sodium oxybate, monosodium salt
[5] = patient 2, 2.5 gm, 0 gm score 4
[6] = patient 4, listed as Xyrem ®, monosodium salt

O=C([O-])CCCO.[Na+] [GHB, 4-hydroxybutanoic acid monosodium salt]
UMRS section 2 (myoclonus at rest) score ([1]; patient 1 1 gm, 0 gm score 3): 3
UMRS section 1 (patient questionnaire) score ([1]; patient 1 3 gm, 0 gm score 33): 31
UMRS section 6 (global disability score) ([1]; patient 1, 1 gm, 0 gm score 4): 3
UMRS section 3 (stimulus sensitivity) score ([1]; patient 1, 1 gm, 0 gm score 8): 3
UMRS section 5 (functional tests) score ([1]; patient 1, 1 gm): 20
UMRS section 4 (myoclonus with action) score ([1]; patient 1, 1 gm, 0 gm score 108): 96
UMRS section 6 (global disability score) ([1]; patient 1, 2 gm, 0 gm score 4): 3
UMRS section 3 (stimulus sensitivity) score ([1]; patient 1, 2 gm, 0 gm score 8): 1
UMRS section 5 (functional tests) score ([1]; patient 1, 2 gm): 13
UMRS section 2 (myoclonus at rest) score ([1]; patient 1, 2 gm, 0 gm score 3): 0
UMRS section 4 (myoclonus with action) score ([1]; patient 1, 2 gm, 0 gm score 108): 64
UMRS section 6 (global disability score) ([1]; patient 1, 2.5 gm, 0 gm score 4): 2
UMRS section 3 (stimulus sensitivity) score ([1]; patient 1, 2.5 gm, 0 gm score 8): 2
UMRS section 5 (functional tests) score ([1]; patient 1, 2.5 gm): 12
UMRS section 2 (myoclonus at rest) score ([1]; patient 1, 2.5 gm, 0 gm score 3): 0
UMRS section 4 (myoclonus with action) score ([1]; patient 1, 2.5 gm, 0 gm score 108): 54
UMRS section 2 (myoclonus at rest) score ([1]; patient 1, 3 gm (asthma exacerbation visit), 0 gm score 3): 3
UMRS section 6 (global disability score) ([1]; patient 1, 3 gm, 0 gm score 4): 3
UMRS section 3 (stimulus sensitivity) score ([1]; patient 1, 3 gm, 0 gm score 8): 3
UMRS section 5 (functional tests) score ([1]; patient 1, 3 gm): 15
UMRS section 4 (myoclonus with action) score ([1]; patient 1, 3 gm, 0 gm score 108): 86
Rx effect, UMRS section 4 (action myoclonus improved by) [1, 4]: 50%
Rx effect, UMRS section 5 (functional performance improved by) [1, 4]: 40%
Rx effect, UMRS section 4 ([1]; patient 2 (table b)): 88%
UMRS section 6 (global disability score) ([1]; patient 2, 1 gm, 0 gm score 1): 1
UMRS section 3 (stimulus sensitivity) score ([1]; patient 2, 1 gm, 0 gm score 4): 2
UMRS section 5 (functional tests, modified) score ([1]; patient 2, 1 gm, 0 gm score 10): 8
UMRS section 2 (myoclonus at rest) score ([1]; patient 2, 1 gm, 0 gm score 4): 2
UMRS section 4 (myoclonus with action) score ([1]; patient 2, 1 gm, 0 gm score 25): 29
UMRS section 6 (global disability score) ([1]; patient 2, 2 gm, 0 gm score 1): 1
UMRS section 3 (stimulus sensitivity) score ([1]; patient 2, 2 gm, 0 gm score 4): 2
UMRS section 5 (functional tests, modified) score ([1]; patient 2, 2 gm, 0 gm score 10): 4
UMRS section 2 (myoclonus at rest) score ([1]; patient 2, 2 gm, 0 gm score 4): 3
UMRS section 4 (myoclonus with action) score ([1]; patient 2, 2 gm, 0 gm score 25): 9
UMRS section 6 (global disability score) ([1]; patient 2, 2.5 gm, 0 gm score 1): 1
UMRS section 3 (stimulus sensitivity) score [1, 5]: 0
UMRS section 5 (functional tests, modified) score ([1]; patient 2, 2.5 gm, 0 gm score 10): 4
UMRS section 2 (myoclonus at rest) score [1, 5]: 0
UMRS section 4 (myoclonus with action) score ([1]; patient 2, 2.5 gm, 0 gm score 25): 3
UMRS section 6 (global disability score) ([1]; patient 2, 3 gm, 0 gm score 1): 1
UMRS section 3 (stimulus sensitivity) score ([1]; patient 2, 3 gm, 0 gm score 4): 0
UMRS section 5 (functional tests, modified) score ([1]; patient 2, 3 gm, 0 gm score 10): 5
UMRS section 2 (myoclonus at rest) score ([1]; patient 2, 3 gm, 0 gm score 4): 0
UMRS section 4 (myoclonus with action) score ([1]; patient 2, 3 gm, 0 gm score 25): 11
Rx effect, UMRS section 5 (functional performance improved by) ([1]; patient 2, listed as sodium oxybate, monosodium salt): 60%
Rx effect, UMRS section 4 ([1]; patient 3 (table c)): 57%
UMRS section 6 (global disability score) ([1]; patient 3, 1 gm, 0 gm score 1): 1
UMRS section 3 (stimulus sensitivity) score ([1]; patient 3, 1 gm, 0 gm score 6): 2
UMRS section 5 (functional tests, modified) score ([1]; patient 3, 1 gm, 0 gm score 12): 13
UMRS section 2 (myoclonus at rest) score ([1]; patient 3, 1 gm, 0 gm score 15): 13
UMRS section 4 (myoclonus with action) score ([1]; patient 3, 1 gm, 0 gm score 35): 25
UMRS section 6 (global disability score) ([1]; patient 3, 2 gm, 0 gm score 1): 1
UMRS section 3 (stimulus sensitivity) score ([1]; patient 3, 2 gm, 0 gm score 6): 3
UMRS section 5 (functional tests, modified) score ([1]; patient 3, 2 gm, 0 gm score 12): 9
UMRS section 2 (myoclonus at rest) score ([1]; patient 3, 2 gm, 0 gm score 15): 15
UMRS section 4 (myoclonus with action) score ([1]; patient 3, 2 gm, 0 gm score 35): 26
UMRS section 6 (global disability score) ([1]; patient 3, 4 gm, 0 gm score 1): 1
UMRS section 3 (stimulus sensitivity) score ([1]; patient 3, 4 gm, 0 gm score 6): 1
UMRS section 5 (functional tests, modified) score ([1]; patient 3, 4 gm, 0 gm score 12): 12
UMRS section 1 (patient questionnaire) score ([1]; patient 3, 4 gm, 0 gm score 10): 5
UMRS section 2 (myoclonus at rest) score ([1]; patient 3, 4 gm, 0 gm score 15): 10
UMRS section 4 (myoclonus with action) score ([1]; patient 3, 4 gm, 0 gm score 35): 15
Rx effect, UMRS section 5 (functional performance improved by) ([1]; patient 3, listed as sodium oxybate, monosodium salt): 25%
Patient self-assessment scores ([1]; patient #1): unchanged
writing and control of spoon ([1]; patient #1, one hour after 2.5 gm): able to write (although slowly) and their control of the spoon was improved
myoclonic jerks on writing, pouring, using a spoon ([1]; patient #2, after 3 gm): the amplitude and frequency of the jerks was diminished
walking ([1]; patient #3, after 4 gm): modestly improved
Patient self-assessment scores ([1]; patients #2 and 3): improved
Physician global assessment scores (UMRS part 6) ([1]; patients #2 and 3, mild (1 out of 4) throughout): remained unchanged
Action myoclonus (section 4) improved by ([1]; second of patients #1-3 'respectively' in the text (patient #2)): 57%
Action myoclonus (section 4) improved by ([1]; third of patients #1-3 'respectively' in the text (patient #3)): 88%
common side effects not requiring dose reduction ([2]; five patients): Transient headache and dizziness
Dose @ D-L-SE ([2]; patient 1): 3 gm
D-L-SE (dose-limiting side effect) ([2]; patient 1, disinhibition printed as mild, listed as Xyrem ®, monosodium salt): sedation and mild; also recorded: disinhibition
SER SE (serious side effect, leading to hospitalization) ([2]; patient 1, judged not likely related to study drug): asthma
Dose @ D-L-SE ([2]; patient 2): 3 gm
MILD SE ([2]; patient 2): Ø
SER SE ([2]; patient 2): Ø
D-L-SE (dose-limiting side effect) ([2]; patient 2, listed as Xyrem ®, monosodium salt): emotional lability
D-L-SE (dose-limiting side effect) ([2]; patient 3): slight sedation
Dose @ D-L-SE ([2]; patient 3): 4 gm
SER SE ([2]; patient 3): Ø
MILD SE ([2]; patient 3, listed as Xyrem ®, monosodium salt): HA (1 gm); also recorded: dizzy (1 gm)
Dose @ D-L-SE ([2]; patient 4): 2 gm
SER SE ([2]; patient 4): Ø
D-L-SE (dose-limiting side effect) [2, 6]: emotional lability
MILD SE [2, 6]: HA (1 gm); also recorded: dizzy (2 gm)
D-L-SE (dose-limiting side effect) ([2]; patient 5): slight sedation
Dose @ D-L-SE ([2]; patient 5): 2 gm
MILD SE ([2]; patient 5): Ø
SER SE ([2]; patient 5): Ø
duration of normal sequence of NREM and REM sleep [3]: 2 to 3 h
